The structures appear in SMILES notation. Where a name gives a salt, the structure may show the parent alone.

For one assay, the target named is T1, ACAT of HepG2 cells (Homo sapiens, UniProt P35610).
T1 construct: endogenous in cells; host or cells: HepG2
T1 sequence (P35610 1-550): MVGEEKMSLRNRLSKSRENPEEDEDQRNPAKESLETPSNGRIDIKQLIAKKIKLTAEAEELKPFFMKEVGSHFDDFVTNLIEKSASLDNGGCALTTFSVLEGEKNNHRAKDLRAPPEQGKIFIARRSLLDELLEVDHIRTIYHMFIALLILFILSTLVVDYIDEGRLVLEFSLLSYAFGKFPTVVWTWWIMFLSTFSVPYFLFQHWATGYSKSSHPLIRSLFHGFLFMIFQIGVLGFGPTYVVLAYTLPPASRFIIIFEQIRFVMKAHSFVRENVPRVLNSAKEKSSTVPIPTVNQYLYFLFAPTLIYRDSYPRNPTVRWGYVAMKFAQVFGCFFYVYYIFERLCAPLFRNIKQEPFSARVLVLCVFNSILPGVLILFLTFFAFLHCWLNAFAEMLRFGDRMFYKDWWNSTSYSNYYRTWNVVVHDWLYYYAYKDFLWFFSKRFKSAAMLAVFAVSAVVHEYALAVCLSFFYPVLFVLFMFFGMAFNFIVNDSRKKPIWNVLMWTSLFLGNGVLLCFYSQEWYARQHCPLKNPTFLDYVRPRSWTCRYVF
As to the kind of experiment: Inhibitory activity against ACAT of HepG2 cells derived from human liver cancer cells. It is filed as cell-based. The following applies: radio-labelled oleic acid/BSA complex, cholesterol oleate produced. The protocol: Inhibitory Activity against ACAT of HepG2 cells Derived from Human Liver Cancer Cells Inhibitory activities of the compounds of the present invention against ACAT were measured by the method described below. HepG2 cells derived from human liver cancer cells were used for the measurement of the ACAT activity. A complex of radio-labelled oleic acid and bovine serum albumin was added to a culture of the cells, and the activity was measured by observing the amount of radio-labelled cholesterol oleate produced from the radio-labelled oleic acid in the cells.

In assay [1] the target is T2, ACAT in foamed macrophages (Mus musculus, UniProt Q61263).
T2 construct: endogenous in cells; host or cells: peritoneal macrophages of ddY female mice, foamed with acetylated LDL
T2 sequence (Q61263 1-540): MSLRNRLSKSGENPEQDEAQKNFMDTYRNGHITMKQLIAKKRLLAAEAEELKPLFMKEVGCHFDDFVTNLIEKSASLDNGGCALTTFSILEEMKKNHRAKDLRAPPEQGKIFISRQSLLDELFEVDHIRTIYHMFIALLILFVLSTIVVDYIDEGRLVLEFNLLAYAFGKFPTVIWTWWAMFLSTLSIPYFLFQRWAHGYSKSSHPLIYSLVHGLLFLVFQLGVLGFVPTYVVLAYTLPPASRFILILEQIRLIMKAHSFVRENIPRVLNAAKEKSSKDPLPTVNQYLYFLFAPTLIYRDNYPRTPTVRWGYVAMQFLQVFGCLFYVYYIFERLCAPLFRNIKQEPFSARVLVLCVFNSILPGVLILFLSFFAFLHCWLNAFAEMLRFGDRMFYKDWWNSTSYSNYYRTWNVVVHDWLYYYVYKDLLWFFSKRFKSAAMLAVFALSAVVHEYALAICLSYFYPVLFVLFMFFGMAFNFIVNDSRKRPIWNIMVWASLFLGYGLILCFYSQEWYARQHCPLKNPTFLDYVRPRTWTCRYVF
In words: Inhibitory activity against ACAT derived from foamed macrophages. It counts as cell-based, mouse (ddY female mice). The settings on record: foamed macrophages from ddY female mice; acetylated LDL, 24 hours; cholesterol oleate produced; read-out: Inhibitory activity against ACAT, Macrophage (IC50). The protocol: Inhibitory Activity against ACAT Derived from Foamed Macrophages
Inhibitory activity of the compounds of the present invention against ACAT in foamed macrophages was measured by the methods set out below. Acetylated low density lipoprotein was added to macrophages taken from abdominal cavities of ddY female mice and the cells were incubated for 24 hours to obtain foaming macrophages. These cells accumulated a large amount of cholesterol (ester) inside the cells, and are used as a model of arteriosclerosis lesion. ACAT activity of the cells was determined by adding a complex of radio-labelled oleic acid and bovine serum albumin to the cell culture, and observing the amount of radio-labelled cholesterol oleate that was produced from the radio-labelled oleic acid in the cells. The inhibitory activities of the compounds of the present invention against ACAT were measured as follows: percent reduction rates of enzymatic activity by the addition of given concentrations of test compounds was observed on the basis of the amount of the produced cholesterol oleate in the control group without the addition of a test compound, and by using the results, IC50, i.e., concentrations of tested compounds required to inhibit 50% of the enzyme activity, was calculated.

On ACAT of HepG2 cells, `CCCCCN(Cc1cc(-n2ccnc2)ccc1OC)C(=O)Nc1c(C)cccc1OCCCN1CCN(c2ccccc2)CC1` [Example 1, N-{5-(1-imidazolyl)-2-methoxyphenyl}methyl-N-(1-pentyl)-N'-[2-{3-(4-phenyl-1-piperazinyl)propoxy}-6-methylphenyl]urea] registered a 50% inhibitory concentration (IC50) of 0.128 µM. On to `CCCCCN(Cc1cc(-n2ccnc2)ccc1OC)C(=O)Nc1c(C)cccc1OCCCN1CCN(c2ccccc2)CC1` [Example 2, N-{5-(1-imidazolyl)-2-methoxyphenyl}methyl-N-(1-pentyl)-N'-[2-{3-(4-phenyl-1-piperazinyl)propoxy}-6-methyphenyl]urea trihydrochloride], for which the IC50 against ACAT of HepG2 cells came out at 0.101 µM; in assay [1], 0.131 µM. Compound `CCCCCCCN(Cc1cccc(OC)c1OCc1ccccc1)C(=O)Nc1c(OCCCN2CCN(c3ccccc3)CC2)ccc2c1CCCC2` [Example 8] returned an IC50 against ACAT of HepG2 cells of 0.414 µM. Still for that read-out and setting: to `COc1cccc(CN(CCCc2ccccc2)C(=O)Nc2c(OCCCN3CCN(c4ccccc4)CC3)ccc3c2CCCC3)c1OCc1ccccc1` [Example 9] belongs 0.366 µM; to `CCCCCN(Cc1ccc(-n2ccnc2)cc1)C(=O)Nc1c(OCCCN2CCN(c3ccccc3)CC2)ccc2c1CCCC2` [Example 10], 0.389 µM; to `CCCCCN(Cc1ccc(-n2ccnc2)cc1)C(=O)Nc1c(C)cccc1OCCCN1CCN(c2ccccc2)CC1` [Example 11], 0.189 µM. `CCCCCN(Cc1ccc(-n2ccnc2)cc1)C(=O)Nc1c(C)cccc1OCCCN1CCN(c2ccccn2)CC1` [Example 12]: the midpoint of inhibition at ACAT of HepG2 cells, the IC50, lay at 0.595 µM. Still for that read-out and setting: to `COc1ccc(-n2ccnc2)cc1CN(Cc1ccccc1)C(=O)Nc1c(OCCCN2CCN(c3ccccc3)CC2)ccc2c1CCCC2` [Example 13] belongs 0.067 µM; to `COc1ccc(-n2ccnc2)cc1CN(Cc1ccccc1)C(=O)Nc1c(C)cccc1OCCCN1CCN(c2ccccc2)CC1` [Example 14], 0.24 µM. Regarding `CCCCCN(Cc1ccccc1-n1ccnc1)C(=O)Nc1c(C)cccc1OCCCN1CCN(c2ccccc2)CC1` [Example 15], at ACAT of HepG2 cells, half-maximal inhibition (IC50) required 0.516 µM. The same measure, in the same setting: to `CCCCCN(Cc1cc(-n2ccnc2)ccc1OC)C(=O)Nc1c(C)cccc1OCCCN1CCN(c2ccccn2)CC1` [Example 17] belongs 0.363 µM. For `CCCCCN(Cc1cc(-n2ccnc2)ccc1OC)C(=O)Nc1c(C)cccc1OCCN1CCN(c2ccccc2)CC1` [Example 18], the values for the IC50 (against ACAT of HepG2 cells; in assay [1]) were 0.164 µM and 0.44 µM, respectively. At ACAT of HepG2 cells, `CCCN(Cc1cc(-n2ccnc2)ccc1OC)C(=O)Nc1c(C)cccc1OCCCN1CCN(c2ccccc2)CC1` [Example 19] showed an IC50 of 0.156 µM. The same measure, in the same setting: the value for `CCCCCN(Cc1cc(-n2ccnc2)cc(OC)c1OC)C(=O)Nc1c(C)cccc1OCCCN1CCN(c2ccccc2)CC1` [Example 20] was 0.851 µM; that for `CCCN(Cc1cc(-n2ccnc2)cc2c1OCO2)C(=O)Nc1c(C)cccc1OCCCN1CCN(c2ccccc2)CC1` [Example 23] was 0.634 µM. Take `CCCCCN(Cc1cc(-n2ccnc2)cc2c1OCO2)C(=O)Nc1c(C)cccc1OCCCN1CCN(c2ccccc2)CC1` [Example 24]: half-maximal inhibition against ACAT of HepG2 cells (IC50) required 0.449 µM.

Take `CCCCCN(Cc1cccc(OC)c1OCc1ccccn1)C(=O)Nc1c(C)cccc1OCCCN1CCN(c2ccccc2)CC1` [Example 26]: on ACAT of HepG2 cells, the IC50 is 0.743 µM. With `CCCCCN(Cc1cccc(OC)c1OCc1ccccn1)C(=O)Nc1c(OCCCN2CCN(c3ccccc3)CC2)ccc2c1CCCC2` [Example 28], at ACAT of HepG2 cells, the IC50 was 0.732 µM. As for `CCCCCN(Cc1cc(-n2ccnc2)ccc1OCc1ccccn1)C(=O)Nc1c(C)cccc1OCCCN1CCN(c2ccccc2)CC1` [Example 30], the IC50 at ACAT of HepG2 cells is 0.234 µM. On the same count and under the same terms, the value for `CCCCCN(Cc1cc(-n2ccnc2)ccc1OCc1ccccn1)C(=O)Nc1c(C)cccc1OCCCN1CCN(c2ccccc2)CC1` [Example 31] was 0.138 µM. At ACAT of HepG2 cells, `CCCCCN(Cc1ccccc1OCc1ccccn1)C(=O)Nc1c(C)cccc1OCCCN1CCN(c2ccccc2)CC1` [Example 32] yielded an IC50 of 0.6 µM. Turning to `CCCCCN(Cc1ccc(OCc2ccccn2)cc1)C(=O)Nc1c(C)cccc1OCCCN1CCN(c2ccccc2)CC1` [Example 34], the concentration for half-maximal inhibition (IC50) against ACAT of HepG2 cells was found to be 0.089 µM; in assay [1], 0.119 µM.

On ACAT of HepG2 cells, `CCCCCN(Cc1cccc(OCc2ccccn2)c1)C(=O)Nc1c(C)cccc1OCCCN1CCN(c2ccccc2)CC1` [Example 36] had an IC50 of 0.27 µM. Same read-out and setting: the value for `CCCCCN(Cc1cccc(-n2ccnc2)c1)C(=O)Nc1c(C)cccc1OCCCN1CCN(c2ccccc2)CC1` [Example 37] was 0.22 µM; that for `CCCCCN(Cc1ccc(-n2ccnc2)cc1)C(=O)Nc1c(C)cccc1OCCCN1CCN(c2ccccc2)CC1` [Example 38] was 0.282 µM; that for `CCCCCN(Cc1ccc(OC)cc1OCc1ccccn1)C(=O)Nc1c(C)cccc1OCCCN1CCN(c2ccccc2)CC1` [Example 40] was 0.32 µM. `CCCCCN(Cc1ccc(OCc2ccccn2)c(OC)c1)C(=O)Nc1c(C)cccc1OCCCN1CCN(c2ccccc2)CC1` [Example 44] showed an IC50 at ACAT of HepG2 cells of 0.4 µM. Compound `CCCCCN(CCc1ccc(-n2ccnc2)c(OC)c1)C(=O)Nc1c(C)cccc1OCCCN1CCN(c2ccccc2)CC1` [Example 46] gave a concentration for half-maximal inhibition (IC50) at ACAT of HepG2 cells of 0.076 µM. On the same count and under the same terms, the value for `CCCCCN(Cc1cc(-n2cccn2)ccc1OC)C(=O)Nc1c(C)cccc1OCCCN1CCN(c2ccccc2)CC1` [Example 47] was 0.081 µM. On the same count and under the same terms, to `CCCCCN(Cc1cc(-n2cncn2)ccc1OC)C(=O)Nc1c(C)cccc1OCCCN1CCN(c2ccccc2)CC1` [Example 49] belongs 0.045 µM.

For the compound `CCCCCN(CCc1cc(-n2ccnc2)cc2c1OCO2)C(=O)Nc1c(C)cccc1OCCCN1CCN(c2ccccc2)CC1` [Example 53], at ACAT of HepG2 cells, the midpoint of inhibition, the IC50, lay at 0.606 µM.

For the compound `CCCCCN(Cc1cc(-n2cccc2)ccc1OC)C(=O)Nc1c(C)cccc1OCCCN1CCN(c2ccccc2)CC1` [Example 55], the half-maximal inhibitory concentration (IC50) on ACAT of HepG2 cells is 0.483 µM.

`CCCCCN(CCc1cc(-n2ccnc2)ccc1OC)C(=O)Nc1c(C)cccc1OCCCN1CCN(c2ccccc2)CC1` [Example 56] yielded an IC50 at ACAT of HepG2 cells of 0.054 µM.

For the compound `CCCCCN(Cc1cc(OC)ccc1-n1ccnc1)C(=O)Nc1c(C)cccc1OCCCN1CCN(c2ccccc2)CC1` [Example 57], the concentration for half-maximal inhibition (IC50) against ACAT of HepG2 cells amounted to 0.22 µM. On the same count and under the same terms, to `O=C(Nc1c(OCCCN2CCN(c3ccccc3)CC2)ccc2c1CCCC2)N(CCCc1ccccc1)Cc1ccccc1OCc1ccccn1` [Example 67] belongs 0.124 µM; to `CCCN(Cc1ccccc1OCc1ccccn1)C(=O)Nc1c(OCCCN2CCN(c3ccccc3)CC2)ccc2c1CCCC2` [Example 68], 0.187 µM; to `CCCN(Cc1ccccc1OCc1cccnc1)C(=O)Nc1c(OCCCN2CCN(c3ccccc3)CC2)ccc2c1CCCC2` [Example 69], 0.289 µM.

Consider `CCCN(Cc1ccccc1OCc1ccncc1)C(=O)Nc1c(OCCCN2CCN(c3ccccc3)CC2)ccc2c1CCCC2` [Example 70], for which it took 0.631 µM to reach half-maximal inhibition at ACAT of HepG2 cells (IC50). Still for that read-out and setting: to `CN(Cc1ccccc1OCc1ccccn1)C(=O)Nc1c(OCCCN2CCN(c3ccccc3)CC2)ccc2c1CCCC2` [Example 71] belongs 0.635 µM; to `COc1ccc(-n2ccnc2)cc1CN(C(=O)Nc1c(C)cccc1OCCCN1CCN(c2ccccc2)CC1)C1CCCC1` [Example 72], 0.262 µM; to `COc1ccc(-n2ccnc2)cc1CN(CC(C)C)C(=O)Nc1c(C)cccc1OCCCN1CCN(c2ccccc2)CC1` [Example 73], 0.458 µM. Regarding `COc1ccc(-n2ccnc2)cc1CN(C(=O)Nc1c(C)cccc1OCCCN1CCN(c2ccccc2)CC1)C(C)C` [Example 74], the half-inhibitory concentration (IC50) at ACAT of HepG2 cells was determined as 0.386 µM.

A word on the IC50: it is the concentration needed to halve the response being measured.

(Values after US5807860A, “Urea derivatives” (Mitsubishi Chemical Corporation, priority 1995, dated 1998).)
